Target: T1, GAL4 DBD (1-147)-CfEcR(DEF)/VP16AD-βRXREF-LmUSPEF (Choristoneura fumiferana, UniProt O77240)
T1 construct: The wild-type D, E, and F domains from spruce budworm Choristoneura fumiferana EcR (“CfEcR-DEF”)
Test: 27-63 Assay (luciferase reporter gene assay in stably transfected CHO cell clone)
Assay type: cell-based
Conditions: for relative Max F1 27-63 Assay: maximum fold induction at any concentration relative to maximum fold induction of GS-E ligand
Experimental: Stably transfected cells were selected by Zeocin resistance. Individually isolated CHO cell clones were transiently transfected with a GAL4 RE-luciferase reporter (pFR Luc). 27-63 clone was selected using Hygromycin.
Cells were trypsinized and diluted to a concentration of 2.5×10^4 cells mL. 100 μL of cell suspension was placed in each well of a 96 well plate and incubated at 37° C. under 5% CO2 for 24 h. Ligand stock solutions were prepared in DMSO and diluted 300 fold for all treatments.
Luciferase reporter gene expression was measured 48 h after cell treatment using Bright-Glo™ Luciferase Assay System from Promega (E2650). Luminescence was detected at room temperature using a Dynex MLX microtiter plate luminometer. EC50s were calculated from dose response data using a three-parameter logistic model.
Each assay was conducted in two separate wells, and the two values were averaged.

[1] = CHO 27-63 clone, luciferase, 48 h

SMILES: CCc1c(OC)cccc1C(=O)NN(C(=O)c1cc(C)cc(C)c1)C(C)(C)C [GS ™-E ligand, 3,5-Dimethyl-benzoic acid N-tert-butyl-N′-(2-ethyl-3-methoxy-benzoyl)-hydrazide, reference compound]
- EC50: 288 nM

SMILES: Cc1cc(C)cc(C(=O)N(NC(=O)c2ccc3c(c2C)OC(CO)CO3)C(C)(C)C)c1 (stereo not shown) [RG-115789, 3,5-dimethylbenzoic acid N-tert-butyl-N′-(3-hydroxymethyl-5-methyl-2,3-dihydrobenzo[1,4]dioxine-6-carbonyl)-hydrazide]
- EC50: 1850 nM
- relative Max F1 27-63 Assay [1]: 0.81

SMILES: Cc1cc(C)cc(C(=O)N(NC(=O)c2ccc3c(c2C)O[C@@H](CO[Si](C)(C)C(C)(C)C)CO3)C(C)(C)C)c1 [RG-115790, 3,5-dimethylbenzoic acid N-tert-butyl-N′-[3-(tert-butyldimethylsilytoxymethyl)-5-methyl-2,3-dihydrobenzo[1,4]dioxine-6-carbonyl]-hydrazide]
- EC50: > 33000 nM
- relative Max F1 27-63 Assay [1]: 0.0

SMILES: Cc1cc(C)cc(C(=O)N(NC(=O)c2ccc3c(c2C)OC(C(=O)O)CO3)C(C)(C)C)c1 (stereo not shown) [RG-115805, 7-[N′-tert-butyl-N′-(3,5-dimethyl-benzoyl)-hydrazinocarbonyl]-8-methyl-2,3-dihydro-benzo[1,4]dioxine-2-carboxylic acid]
- EC50: > 33000 nM
- relative Max F1 27-63 Assay [1]: 0.01

SMILES: COC(=O)[C@H]1COc2ccc(C(=O)NN(C(=O)c3cc(C)cc(C)c3)C(C)(C)C)c(C)c2O1 [RG-115806]
- EC50: ~33000 nM
- relative Max F1 27-63 Assay [1]: 0.25

SMILES: Cc1cc(C)cc(C(=O)N(NC(=O)c2ccc3c(c2C)O[C@@H](C=NNC(N)=O)CO3)C(C)(C)C)c1 [RG-115807, 3,5-dimethyl-benzoic acid N-tert-butyl-N′-(3-formylsemicarbazide-5-methyl-2,3-dihydro-benzo[1,4]dioxine-6-carbonyl)-hydrazide]
- EC50: 3340 nM
- relative Max F1 27-63 Assay [1]: 0.80

SMILES: Cc1cc(C)cc(C(=O)N(NC(=O)c2ccc3c(c2C)OC(COC(=O)Nc2ccccc2)CO3)C(C)(C)C)c1 (stereo not shown) [RG-115808, phenyl-carbamic acid 7-[N′-tert-butyl-N′-(3,5-dimethyl-benzoyl)-hydrazinocarbonyl]-8-methyl-2,3-dihydro-benzo[1,4]dioxin-2-ylmethyl ester]
- EC50: 1120 nM
- relative Max F1 27-63 Assay [1]: 2.37

SMILES: Cc1cc(C)cc(C(=O)N(NC(=O)c2ccc3c(c2C)OC(CCN)CO3)C(C)(C)C)c1 (stereo not shown) [RG-115809, 3,5-dimethyl-benzoic acid N′-[3-(2-amino-ethyl)-5-methyl-2,3-dihydro-benzo[1,4]dioxine-6-carbonyl]-N-tert-butyl-hydrazide]
- EC50: 3250 nM
- relative Max F1 27-63 Assay [1]: 1.09

SMILES: Cc1cc(C)cc(C(=O)N(NC(=O)c2ccc3c(c2C)OC(C(=O)Oc2c(F)c(F)c(F)c(F)c2F)CO3)C(C)(C)C)c1 (stereo not shown) [RG-115810, 7-[N′-tert-butyl-N′-(3,5-dimethyl-benzoyl)-hydrazinocarbonyl]-8-methyl-2,3-dihydro-benzo[1,4]dioxine-2-carboxylic acid pentafluorophenyl ester]
- EC50: ~20000 nM
- relative Max F1 27-63 Assay [1]: 1.23

SMILES: CNC(=O)C1COc2ccc(C(=O)NN(C(=O)c3cc(C)cc(C)c3)C(C)(C)C)c(C)c2O1 (stereo not shown) [RG-115811, 7-[N′-tert-butyl-N′-(3,5-dimethyl-benzoyl)-hydrazinocarbonyl]-8-methyl-2,3-dihydro-benzo[1,4]dioxine-2-carboxylic acid methylamide]
- EC50: > 33000 nM
- relative Max F1 27-63 Assay [1]: 0.24

SMILES: Cc1cc(C)cc(C(=O)N(NC(=O)c2ccc3c(c2C)OC(C=O)CO3)C(C)(C)C)c1 (stereo not shown) [RG-115812, 3,5-dimethyl-benzoic acid N-tert-butyl-N′-(3-formyl-5-methyl-2,3-dihydro-benzo[1,4]dioxine-6-carbonyl)-hydrazide]
- EC50: 2680 nM
- relative Max F1 27-63 Assay [1]: 0.86

SMILES: Cc1ccc(S(=O)(=O)OCC2COc3ccc(C(=O)NN(C(=O)c4cc(C)cc(C)c4)C(C)(C)C)c(C)c3O2)cc1 (stereo not shown) [RG-115813, toluene-4-sulfonic acid 7-[N′-tert-butyl-N′-(3,5-dimethyl-benzoyl)-hydrazinocarbonyl]-8-methyl-2,3-dihydro-benzo[1,4]dioxin-2-ylmethyl ester]
- EC50: > 33000 nM
- relative Max F1 27-63 Assay [1]: 0.01

SMILES: Cc1cc(C)cc(C(=O)N(NC(=O)c2ccc3c(c2C)OC(C=NO)CO3)C(C)(C)C)c1 (stereo not shown) [RG-115814, 3,5-dimethyl-benzoic acid N-tert-butyl-N′-[3-(hydroxyimino-methyl)-5-methyl-2,3-dihydro-benzo[1,4]dioxine-6-carbonyl]-hydrazide]
- EC50: 320 nM
- relative Max F1 27-63 Assay [1]: 1.0

SMILES: Cc1cc(C)cc(C(=O)N(NC(=O)c2ccc3c(c2C)OC(CF)CO3)C(C)(C)C)c1 (stereo not shown) [RG-115815, 3,5-dimethyl-benzoic acid N-tert-butyl-N′-(3-fluoromethyl-5-methyl-2,3-dihydro-benzo[1,4]dioxine-6-carbonyl)-hydrazide]
- EC50: 300 nM
- relative Max F1 27-63 Assay [1]: 0.738

SMILES: Cc1cc(C)cc(C(=O)N(NC(=O)c2ccc3c(c2C)OC(CC#N)CO3)C(C)(C)C)c1 (stereo not shown) [RG-115816, 3,5-Dimethyl-benzoic acid N-tert-butyl-N′-(3-cyanomethyl-5-methyl-2,3-dihydro-benzo[1,4]dioxine-6-carbonyl)-hydrazide]
- EC50: 4220 nM
- relative Max F1 27-63 Assay [1]: 0.85

SMILES: CSCC1COc2ccc(C(=O)NN(C(=O)c3cc(C)cc(C)c3)C(C)(C)C)c(C)c2O1 (stereo not shown) [RG-115817, 3,5-dimethyl-benzoic acid N-tert-butyl-N′-(5-methyl-3-methylsulfanylmethyl-2,3-dihydro-benzo[1,4]dioxine-6-carbonyl)-hydrazide]
- EC50: 2900 nM
- relative Max F1 27-63 Assay [1]: 0.95

SMILES: Cc1cc(C)cc(C(=O)N(NC(=O)c2ccc3c(c2C)O[C@@H](CS(C)(=O)=O)CO3)C(C)(C)C)c1 [RG-115818, 3,5-Dimethyl-benzoic acid N-tert-butyl-N′-(3-methanesulfonyl-methyl-5-methyl-2,3-dihydro-benzo[1,4]dioxine-6-carbonyl)-hydrazide]
- EC50: 5260 nM

SMILES: CCCCCCC(N(NC(=O)c1ccc(CC)cc1)C(=O)c1cc(C)cc(C)c1)C(C)(C)C (stereo not shown) [RG-115843]
- EC50: 850 nM
- relative Max F1 27-63 Assay [1]: 0.73

SMILES: CCCCCCC(N(NC(=O)c1ccc(CC)cc1)C(=O)c1cc(OC)c(C)c(OC)c1)C(C)(C)C (stereo not shown) [RG-115844]
- EC50: 1230 nM
- relative Max F1 27-63 Assay [1]: 0.352

SMILES: CCCCCCC(N(NC(=O)c1ccc(CC)cc1)C(=O)c1cccnc1OC)C(C)(C)C (stereo not shown) [RG-115845, 2-methoxy-nicotinic acid N-(1-tert-butyl-heptyl)-N′-(4-ethyl-benzoyl)-hydrazide]
- EC50: 4470 nM
- relative Max F1 27-63 Assay [1]: 0.52

SMILES: CCCCCCC(N(NC(=O)c1cccc(OC)c1C)C(=O)c1cc(C)cc(C)c1)C(C)(C)C (stereo not shown) [RG-115853, 3,5-dimethyl-benzoic acid N-(1-tert-butyl-heptyl)-N′-(3-methoxy-2-methyl-benzoyl)-hydrazide]
- EC50: 100 nM
- relative Max F1 27-63 Assay [1]: 0.898

SMILES: CCCCCCC(N(NC(=O)c1cccc(OC)c1C)C(=O)c1cc(OC)c(C)c(OC)c1)C(C)(C)C (stereo not shown) [RG-115854]
- EC50: 200 nM
- relative Max F1 27-63 Assay [1]: 0.917

SMILES: COc1cccc(C(=O)NN(C(=O)c2cc(C)cc(C)c2)C(/C=C(\C)C(C)(C)C)C(C)(C)C)c1C (stereo not shown) [RG-115855, 3-methoxy-2-methyl-benzoic acid N′-(1-tert-butyl-3,4,4-trimethyl-pent-2-enyl)-N′-(3,5-dimethyl-benzoyl)-hydrazide]
- EC50: 26.7 nM
- relative Max F1 27-63 Assay [1]: 1.16

SMILES: COc1cccc(C(=O)NN(C(=O)c2cc(C)cc(C)c2)/C(=C/C#N)C(C)(C)C)c1C [RG-115860, 3-methoxy-2-methyl-benzoic acid N′-(1-tert-butyl-2-cyano-vinyl)-N′-(3,5-dimethylbenzoyl) hydrazide]
- Avg F1 27-63 Assay (at 33 μM, CHO 27-63 clone, luciferase, 48 h): Avg F1 = 2307 at 33 μM

SMILES: CCCCC(N(NC(=O)c1cccc(OC)c1C)C(=O)c1cc(C)cc(C)c1)C(C)(C)CCC (stereo not shown) [RG-115877, 3,5-Dimethyl-benzoic acid N-(1-butyl-2,2-dimethyl-pentyl)-N′-(3-methoxy-2-methyl-benzoyl)-hydrazide]
- EC50: 2250 nM
- relative Max F1 27-63 Assay [1]: 1.48

SMILES: C=CCC(C)(C)C(CCCC)N(NC(=O)c1cccc(OC)c1C)C(=O)c1cc(C)cc(C)c1 (stereo not shown) [RG-115878, 3,5-dimethyl-benzoic acid N-(1-butyl-2,2-dimethyl-pent-4-enyl)-N′-(3-methoxy-2-methyl-benzoyl)-hydrazide]
- EC50: 100 nM
- relative Max F1 27-63 Assay [1]: 1.05

Source: patent US7851220B2, “Diacylhydrazine ligands for modulating the expression of exogenous genes in mammalian systems via an ecdysone receptor complex” (priority 2003, dated 2010)
